# Molecular target: Granzyme B (human lymphocytes) (Homo sapiens (Human), UniProt P10144)
# Experiment: human Granzyme B biochemical assay
# Settings: Granzyme B (human lymphocytes) 5 nM, substrate Ac-IETD-AFC 200 μM, Cpd incubation with enzyme 30 mins, 22° C., read time 60 mins; read-out: IC50
# Source text: The compounds of Formula I-VIII described above can be tested using the human Granzyme B biochemical assay provided below.
# Materials: • 1. Granzyme B (human lymphocytes) Enzyme: Enzo Lifesciences, Cat #ALX-200-602-0010 • 2. Substrate (Ac-IETD-AFC): Enzo Lifesciences, Cat #ALX-260-110-M010 • 3. Standard inhibitor (Compound 20-Isomer3): Synthesized internally in TCG • 4. Dimethyl sulfoxide (DMSO): Sigma-Aldrich, Cat #41639 • 5. HEPES: Gibco, Cat #15630-080 • 6. Calcium chloride: Sigma-Aldrich, Cat #C-5080 • 7. Distilled water: Gibco, Cat #15230-162 • 8. Bovine serum albumin (BSA): Sigma-Aldrich, Cat #A3059 • 9. Black, clear bottom PDL plate (384 wells): Greiner bio-one, Cat #781946 • 10. Polypropylene plate (384 wells): Corning, Cat #3657 Assay Buffer Composition:
# Compound Preparation: • 1. DMSO is added to the respective compound vial to make 10 mM Compound stock solution, which is stored at −20° C. • 2. 10 mM Compound stock solution is thawed and 1 mM DMSO stock solution is prepared by adding 45 μl of DMSO to 5 μl of 10 mM compound stock solution. • 3. 1 mM DMSO stock solution is serially diluted (3.16 fold) by adding 10 μl of 1 mM DMSO stock to 21.6 μl of DMSO and mixed well. 10 μl of the resulting solution is then added to 21.6 μl of DMSO and mixed well. This process is continued to create 11 dilution points for the assay standard inhibitor and 8 dilution points for test compounds in 384 well polypropylene plate. • 4. 2 μl of each dilution are dispensed in assay ready plate. • 5. Each well is then diluted 25 fold by adding 48 μl of assay buffer to 2 μl of compound in assay ready plate to make Compound working stock. Enzyme Preparation: • 1. Supplied Granzyme B (human lymphocytes) enzyme is reconstituted to 1 mg/ml (about 31.25 μM) and 1 μl aliquots are kept in −80° C. • 2. 1 μl aliquot is diluted to 625 nM by adding 49 μl of assay buffer containing 0.1% BSA and gently mixed. • 3. 10 nM enzyme working stock is prepared by adding assay buffer containing 0.1% BSA. Substrate Preparation: • 1. Supplied substrate (Ac-IETD-AFC) is reconstituted by adding DMSO to make 10 mM stock, aliquoted and stored in −80° C. • 2. 4 mM substrate mid stock is prepared by adding DMSO. • 3. Substrate working stock i.e. 800 μM is prepared by adding assay buffer. Assay Protocol: • 1. 10 μl of serially diluted Compound working stock (start dose 40 μM) is added from assay ready plate to assay plate according to the plate map. • 2. Positive control (40 μM of standard inhibitor) and negative control (4% DMSO buffer) are added to the respective wells. • 3. 20 μl of Enzyme working stock is added to assay plate and gently mixed. • 4. The plate is incubated at 22° C. for 30 mins and spun at 130 g for 1 minute. • 5. After incubation, 10 μl of Substrate working stock is added to respective wells and mixed (Assay plate is maintained in dark after substrate addition). • 6. The plate is incubated at 22° C. for 60 mins and spun at 130 g for 1 minute. • 7. Fluorescence read (RFU) (Ex: 400 nm/Em: 505 nm) is taken after 60 mins in EnVision Multimode plate reader. Final Assay Concentration:
# Data Analysis: • 1. The RFU read is analyzed to calculate percent inhibition by normalizing with positive and negative controls taken as 100% and 0% effect respectively in Microsoft excel. • 2. Graph is generated by putting the analyzed data in GraphPad prism 5.0 software to get IC50 value for each compound.
# Sequence of Granzyme B (human lymphocytes) (P10144 21-247): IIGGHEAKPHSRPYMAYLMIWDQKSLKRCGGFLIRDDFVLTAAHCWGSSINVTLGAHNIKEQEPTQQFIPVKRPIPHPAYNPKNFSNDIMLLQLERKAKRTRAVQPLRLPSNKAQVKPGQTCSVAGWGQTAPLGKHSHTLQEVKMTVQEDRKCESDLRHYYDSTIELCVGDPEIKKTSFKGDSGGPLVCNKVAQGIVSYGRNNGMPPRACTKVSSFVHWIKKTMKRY
row,Structure (SMILES),IC50
1,"CC[C@H](C)[C@H](NC(=O)COCCF)C(=O)N[C@H]1CCc2cccc3c2N(C1=O)[C@H](C(=O)NCc1cnoc1)C3 [Compound C117, (2S,5S)-5-{(2S,3S)-2-[2-(2-Fluoro-ethoxy)-acetylamino]-3-methyl-pentanoylamino}-4-oxo-1,2,4,5,6,7-hexahydro-azepino[3,2,1-hi]indole-2-carboxylic acid (isoxazol-4-ylmethyl)-amide]",> 5000 nM
2,"CC(C)C[C@H](NC(=O)Cc1csc2ccccc12)C(=O)N[C@H]1CCc2cccc3c2N(C1=O)[C@H](C(=O)NCc1c[nH]nn1)C3 [Compound C005, (2S,5S)-5-[(S)-2-(2-Benzo[b]thiophen-3-yl-acetylamino)-4-methyl-pentanoylamino]-4-oxo-1,2,4,5,6,7-hexahydro-azepino[3,2,1-hi]indole-2-carboxylic acid (1H-[1,2,3]triazol-4-ylmethyl)-amide]",1000 to 5000 nM
3,"O=C(Cc1csc2ccccc12)N[C@@H](Cc1ccc(F)cc1)C(=O)N[C@H]1CCc2cccc3c2N(C1=O)[C@H](C(=O)NCc1c[nH]nn1)C3 [Compound C011, (2S,5S)-5-[(S)-2-(2-Benzo[b]thiophen-3-yl-acetylamino)-3-(4fluoro-phenyl)-propionylamino]-4-oxo-1,2,4,5,6,7-hexahydro-azepino[,3,2,1-hi]indole-2-carboxylic acid (1H-[1,2,3]triazol-4-ylmethyl)-amide]",> 5000 nM
4,"CC(=O)N[C@H](C(=O)N[C@H]1CCc2cccc3c2N(C1=O)[C@H](C(=O)NCC(=O)O)C3)C(C)C [Compound C085, {[(2S,5S)-5-((S)-2-Acetylamino-3-methyl-butyrylamino)-4-oxo-1,2,4,5,6,7-hexahydro-azepino[3,2,1-hi]indole-2-carbonyl]-amino}-acetic acid]",1000 to 5000 nM
5,"CC[C@H](C)[C@H](NC(=O)COCCF)C(=O)N[C@H]1CCc2cccc3c2N(C1=O)[C@H](C(=O)NCc1cncs1)C3 [Compound C112, (2S,5S)-5-{(2S,3S)-2-[2-(2-Fluoro-ethoxy)-acetylamino]-3-methyl-pentanoylamino}-4-oxo-1,2,4,5,6,7-hexahydro-azepino[3,2,1-hi]indole-2-carboxylic acid (thiazol-5-ylmethyl)-amide]",> 5000 nM
6,"CC[C@H](C)[C@H](NC(=O)Cc1csc2ccccc12)C(=O)N[C@H]1COc2cccc3c2N(C1=O)[C@H](C(=O)NCc1c[nH]nn1)C3 [Compound C146, (1S,8S)-8-[(2S,3S)-2-(2-Benzo[b]thiophen-3-yl-acetylamino)-3-methyl-pentanoylamino]-9-oxo-1,2,8,9-tetrahydro-7H-6-oxa-9a-aza-benzo[cd]azulene-1-carboxylic acid (1H-[1,2,3]triazol-4-ylmethyl)-amide]",1 to 300 nM
7,"COC(=O)[C@@H](C)NC(=O)[C@@H]1Cc2cccc3c2N1C(=O)[C@@H](NC(=O)[C@@H](NC(C)=O)C(C)C)CC3 [Compound C088, (R)-2-{[(2S,5S)-5-((S)-2-Acetylamino-3-methyl-butyrylamino)-4-oxo-1,2,4,5,6,7-hexahydro-azepino[3,2,1-hi]indole-2-carbonyl]-amino}-propionicacid methyl ester]",> 5000 nM

# Now from value to molecule:
row,IC50,Structure (SMILES)
1,1 to 300 nM,"CC[C@H](C)[C@H](NC(=O)c1cccnc1)C(=O)N[C@H]1CCc2cccc3c2N(C1=O)[C@H](C(=O)NCc1c[nH]nn1)C3 [Compound C067, (2S,5S)-5-{(2S,3S)-3-Methyl-2-[(pyridine-3-carbonyl)-amino]-pentanoylamino}-4-oxo-1,2,4,5,6,7-hexahydro-azepino[3,2,1-hi]indole-2-carboxylicacid (1H-[1,2,3]triazol-4-ylmethyl)-amide]"
2,1000 to 5000 nM,"CC(=O)N[C@@H](Cc1ccccc1)C(=O)N[C@H]1CCc2cccc3c2N(C1=O)[C@H](C(=O)NCc1c[nH]nn1)C3 [Compound C026, (2S,5S)-5-((S)-2-Acetylamino-3-phenyl-propionylamino)-4-oxo-1,2,4,5,6,7-hexahydro-azepino[3,2,1-hi]indole-2-carboxylic acid (1H-[1,2,3]triazol-4-ylmethyl)-amide]"
3,1 to 300 nM,"CC(C)[C@H](NC(=O)c1ccccc1)C(=O)N[C@H]1COc2cccc3c2N(C1=O)[C@H](C(=O)NCc1c[nH]nn1)C3 [Compound C100, (1S,8S)-8-((S)-2-Benzoylamino-3-methyl-butyrylamino)-9-oxo-1,2,8,9-tetrahydro-7H-6-oxa-9a-aza-benzo[cd]azulene-1-carboxylic acid (1H-[1,2,3,]triazol-4-ylmethyl)-amide]"
4,1000 to 5000 nM,"O=C(Cc1ccccc1)N[C@@H](Cc1ccc(O)cc1)C(=O)N[C@H]1CCc2cccc3c2N(C1=O)[C@H](C(=O)NCc1c[nH]nn1)C3 [Compound C021, (2S,5S)-5-[(S)-3-(4-Hydroxy-phenyl)-2-phenylacetylamino-propionylamino]-4-oxo-1,2,4,5,6,7-hexahydro-azepino[3,2,1-hi]indole-2-carboxylic acid (1H-[1,2,3]triazol-4-ylmethyl)-amide]"
5,1 to 300 nM,"CC[C@H](C)[C@H](NC(=O)c1ccncc1)C(=O)N[C@H]1CCc2cccc3c2N(C1=O)[C@H](C(=O)NCc1c[nH]nn1)C3 [Compound C068, (2S,5S)-5-{(2S,3S)-3-Methyl-2-[(pyridine-4-carbonyl)-amino]-pentanoylamino}-4-oxo-1,2,4,5,6,7-hexahydro-azepino[3,2,1-hi]indole-2-carboxylicacid (1H-[1,2,3]triazol-4-ylmethyl)-amide]"
6,> 5000 nM,"O=C(CNC(=O)c1ccccc1)N[C@H]1CCc2cccc3c2N(C1=O)[C@H](C(=O)NCc1c[nH]nn1)C3 [Compound C034, (2S,5S)-5-(2-Benzoylamino-acetylamino)-4-oxo-1,2,4,5,6,7-hexahydro-azepino[3,2,1-hi]indole-2-carboxylic acid (1H-[1,2,3]triazol-4-ylmethyl)-amide]"
7,1 to 300 nM,"Cc1cccc(C(=O)N[C@H](C(=O)N[C@H]2CCc3cccc4c3N(C2=O)[C@H](C(=O)NCc2c[nH]nn2)C4)C(C)C)c1 [Compound C051, (2S,5S)-5-[(S)-3-Methyl-2-(3-methyl-benzoylamino)-butyrylamino]-4-oxo-1,2,4,5,6,7-hexahydro-azepino[3,2,1-hi]indole-2-carboxylic acid (1H-[1,2,3]triazol-4-ylmethyl)-amide]"
8,1 to 300 nM,"CC[C@H](C)[C@H](NC(=O)Cc1ccccc1)C(=O)N[C@H]1CCc2cccc3c2N(C1=O)[C@H](C(=O)NCc1c[nH]nn1)C3 [Compound C017, (2S,5S)-5-((2S,3S)-3-Methyl-2-phenylacetylamino-pentanoylamino)-4-oxo-1,2,4,5,6,7-hexahydro-azepino[3,2,1-hi]indole-2-carboxylic acid(1H-[1,2,3]triazol-4-ylmethyl)-amide]"
9,1 to 300 nM,"Cc1ccccc1C(=O)N[C@H](C(=O)N[C@H]1CCc2cccc3c2N(C1=O)[C@H](C(=O)NCc1c[nH]nn1)C3)C(C)C [Compound C050, (2S,5S)-5-[(S)-3-Methyl-2-(2-methyl-benzoylamino)-butyrylamino]-4-oxo-1,2,4,5,6,7-hexahydro-azepino[3,2,1-hi]indole-2-carboxylic acid (1H-[1,2,3]triazol-4-ylmethyl)-amide]"
10,1 to 300 nM,"CC(C)[C@H](NC(=O)c1cccnc1)C(=O)N[C@H]1CCc2cccc3c2N(C1=O)[C@H](C(=O)NCc1c[nH]nn1)C3 [Compound C070, (2S,5S)-5-{(S)-3-Methyl-2-[(pyridine-3-carbonyl)-amino]-butyrylamino}-4-oxo-1,2,4,5,6,7-hexahydro-azepino[3,2,1-hi]indole-2-carboxylic acid (1H-[1,2,3]triazol-4-ylmethyl)-amide]"

# Reference: patent US11667645B2, “Granzyme B directed imaging and therapy” (CytoSite Biopharma Inc., priority 2018, dated 2023)
